Test results from patent US20040192554A1, “Technique for effectively treating an agricultural product with a 1-substituted-cyclopropene” (priority 2003, published 2004).

Experiments:
Format in all cases: in vivo
[1] = tested on: Japanese pear (variety "Shinsei") fruit; assay: Quality deterioration of Japanese pear (Shinsei) fruit after storage, Example 1; conditions: 1 ppm, after storage 25 degrees C 2 weeks
Procedure: Using a Japanese pear (variety “Shinsei”) fruit (6 fruits were used per group) as an agricultural product, the following experiment was preformed.
1) A fruit and 1-methylcyclopropene (concentration 1 ppm (parts per million) in a chamber) were placed into a sealed chamber (volume 30L, same in the following Examples), and contact-treated for 1 hour or 16 hours under a normal pressure.
2) A fruit was placed into a sealed chamber, and a pressure in the chamber was reduced to 12.5 kPa. Subsequently, 1-methylcyclopropene was placed therein to the concentration in the chamber of 1 ppm, and contact-treated for 30 minutes or 1 hour under the reduced pressure (12.5 kPa).
The fruit which had been subjected to treatment of above-mentioned 1) or 2) was stored at 25 degrees C for 2 weeks, and hardness of flesh and pH of a fruit juice which is an index for the content of an acid were measured. In addition, browning of flesh and fruit core, which is an index for an extent of storage disorder was assessed by naked eyes. Contact treatment of the above-mentioned 1) or 2) was performed on a day of harvesting a fruit. In addition, also regarding a fruit undergoing no treatment of 1) or 2) (non-treatment), similar storage was performed, and the above-mentioned index was measured and assessed. Further, regarding non-treated fruit, the above-mentioned index before storage was also measured and assessed. Different alpha characters in Table indicate that a significant difference was recognized at a risk rate of 5% (multiple range test of Newman-Keuls). In Tables showing the results of the following Examples 1 to 10, “1-MCP” denotes 1-methylcyclopropene.

[2] = tested on: Japanese pear (variety "Shinsei") fruit; assay: Quality deterioration of Japanese pear (Shinsei) fruit after storage, Example 2; conditions: 1 ppm, after storage 25 degrees C 2 weeks
Procedure: Using a Japanese pear (variety “Shinsei”) fruit (6 fruits were used per group) as an agricultural product, the following experiment was performed.
(§1) 1) A fruit and 1-methylcyclopropene (concentration 1 ppm in a chamber) were placed into a sealed chamber, and contact-treated for 16 hours under a normal pressure.
2) A fruit was placed into a sealed chamber, and a pressure in the chamber was reduced to 12.5 kPa. Subsequently, 1-methylcyclopropene was placed therein to the concentration in the chamber of 1 ppm, and contact-treated for 1 minute or 10 minutes under the reduced pressure (12.5 kPa).
(§2) The fruit which had been subjected to treatment of the above-mentioned 1) or 2) was stored at 25 degrees C for 2 weeks, and hardness of flesh and pH of a fruit juice which is an index for the content of an acid were measured. In addition, browning of flesh and fruit core, which is an index for an extent of storage disorder was assessed by naked eyes. Contact treatment of the above-mentioned 1) or 2) was performed on a day of harvesting a fruit. In addition, also regarding a fruit undergoing no treatment of 1) or 2) (non-treatment), similar storage was performed, and the above-mentioned index was measured and assessed. Further, regarding non-treated fruit, the above-mentioned index before storage was also measured and assessed. Different alpha characters in the same column after storage indicate that a significant difference was recognized at a risk rate of 5% (multiple range test of Newman-Keuls).

[3] = tested on: Japanese pear (variety "Kosui") fruit; assay: Quality deterioration of Japanese pear (Kosui) fruit after storage, Example 3; conditions: 1 ppm, after storage 25 degrees C 2 weeks
Procedure: Using a Japanese pear (variety “Kosui”) fruit (6 fruits were used per group) as an agricultural product, the following experiment was performed.
as §1
2) A fruit was placed into a sealed chamber, and a pressure in the chamber was reduced to 25.0 kPa. Subsequently, 1-methylcyclopropene was placed therein to the concentration in the chamber of 1 ppm, and contact-treated for 1 minute under the reduced pressure (25.0 kPa).
as §2, with “addition,” for “addition, browning of flesh and fruit core, which is an index for”, “tasting.” for “naked eyes.”, “Table 3” for “the same column after storage”

[4] = tested on: peach (variety "Akatsuki") fruit; assay: Quality deterioration of peach (Akatsuki) fruit after storage, Example 8; conditions: 1 ppm, after storage 25 degrees C 5 days, treated on day of harvest
Procedure: Using a peach (variety “Akatsuki”) fruit (6 fruits were used per group) as an agricultural product, the following experiment was performed.
1) A fruit and 1-methylcyclopropene (concentration in a chamber 1 ppm) were placed into a sealed chamber, and contact-treated for 12 hours under a normal pressure.
2) A fruit was placed into a sealed chamber, and a pressure in the chamber was reduced to 25.0 kPa. Subsequently, 1-methylcyclopropene was placed therein to the concentration in the chamber of 1 ppm, and contact-treated for 1 minute under the reduced pressure (25.0 kPa). Then, the pressure was returned to a normal pressure, and contact treatment was carried out for 12 hours while the concentration of 1-methylcyclopropene in the chamber was maintained at 1 ppm.
The fruit which had been subjected to treatment of the above-mentioned 1) or 2) was stored at 25 degrees C for 5 days, and hardness of flesh was measured. In addition, contact treatment of the above-mentioned 1) or 2) was performed on a day for harvesting of a fruit. In addition, also regarding a fruit undergoing no treatment of 1) or 2) (non-treatment), similar storage was performed, and the above-mentioned index was measured. Further, regarding a non-treated fruit, the above-mentioned index before storage was also measured. […]

[5] = Reduced pressure (12.5 kPa) 30 minutes
[6] = Reduced pressure (12.5 kPa) 1 hour
[7] = Reduced pressure (12.5 kPa) 1 minute
[8] = Reduced pressure (12.5 kPa) 10 minutes
[9] = Reduced pressure (25.0 kPa) 1 minute

CC1=CC1 [1-MCP, 1-methylcyclopropene]
Hardness of flesh ([1]; Normal pressure 1 hour): 16.46a N | Presence or absence of browning ([1]; Normal pressure 1 hour): Presence | pH of fruit juice ([1]; Normal pressure 1 hour): 5.07 | Hardness of flesh ([1]; Normal pressure 16 hours): 21.17b N | Presence or absence of browning ([1]; Normal pressure 16 hours): Absence | pH of fruit juice ([1]; Normal pressure 16 hours): 5.07 | Hardness of flesh [1, 5]: 20.58b N | Presence or absence of browning [1, 5]: Slight | pH of fruit juice [1, 5]: 5.10 | Hardness of flesh [1, 6]: 20.97b N | Presence or absence of browning [1, 6]: Absence | pH of fruit juice [1, 6]: 4.97 | Hardness of flesh ([2]; Normal pressure 16 hours): 22.74c N | Presence or absence of browning ([2]; Normal pressure 16 hours): Absence | pH of fruit juice ([2]; Normal pressure 16 hours): 4.92a | Hardness of flesh [2, 7]: 18.72b N | Presence or absence of browning [2, 7]: Absence | pH of fruit juice [2, 7]: 4.90a | Hardness of flesh [2, 8]: 22.25c N | Presence or absence of browning [2, 8]: Absence | pH of fruit juice [2, 8]: 5.00ab | Hardness of flesh ([3]; Normal pressure 16 hours): 22.44 N | Tasting ([3]; Normal pressure 16 hours): Better | pH of fruit juice ([3]; Normal pressure 16 hours): 5.22a | Hardness of flesh [3, 9]: 21.36 N | Tasting [3, 9]: Better | pH of fruit juice [3, 9]: 5.57b | Hardness of flesh ([4]; Normal pressure 12 hours after reduced pressure (25.0 kPa) 1 minute): 6.18b N | Hardness of flesh ([4]; Normal pressure 12 hours): 2.84a N
